Structures can show the parent of a compound that is named as a salt.
Test: Related substance testing by HPLC on interaction samples after storage
Type: physicochemical
[1] = 40/75: incubator 40° C./75% RH for 6 days

Protocol: The APIs alone and two initial, conventional finished dosage forms were analysed under three different storage conditions, ie. cold room storage, kept in an oven at 60° C. for 7 days and stored in an incubator held at 40° C./75% RH for 6 days. The mixtures of one or both APIs with an excipient were analysed under two different storage conditions, ie. kept in an oven at 60° C. for 7 days and stored in an incubator held at 40° C./75% RH for 6 days.
The list of samples are as follows: • Fluoxetine HCl alone • Olanzapine alone • Fluoxetine HCl/Olanzapine Capsules • Fluoxetine HCl+Microcrystalline cellulose • Fluoxetine HCl+Pregelatinised maize starch • Fluoxetine HCl+Maize starch • Fluoxetine HCl+Magnesium stearate • Fluoxetine HCl+Olanzapine • Fluoxetine HCl+Olanzapine+Microcrystalline cellulose • Fluoxetine HCl+Olanzapine+Pregelatinised maize starch • Fluoxetine HCl+Olanzapine+Maize starch • Fluoxetine HCl+Olanzapine+Magnesium stearate • Olanzapine Tablets • Olanzapine+Lactose monohydrate • Olanzapine+Microcrystalline cellulose • Olanzapine+Maize starch • Olanzapine+Pregelatinised maize starch • Olanzapine+Crospovidone • Olanzapine+Magnesium stearate • Olanzapine+Opadry® II coating ingredients
The samples were analysed after the allotted period of time and the level of known and unknown related substances were determined by HPLC.

For CNCCC(Oc1ccc(C(F)(F)F)cc1)c1ccccc1 (stereo not drawn) [Fluox API, Fluoxetine HCl], the “Impurity 1 (unknown related substance)” value [1] was 0.041, the “Impurity 2 (unknown related substance)” value [1] was 0.069 and the “Impurity 1 (unknown related substance)” value (CR: cold room storage) was 0.034. The “Impurity 2 (unknown related substance)” value (CR: cold room storage) was 0.068, the “Impurity 1 (unknown related substance)” value (Oven: 60° C. for 7 days) was 0.039 and the “Impurity 2 (unknown related substance)” value (Oven: 60° C. for 7 days) was 0.067.

From patent US20100092549A1, “Dosage Form Containing Two or More Active Pharmaceutical Ingredients in Different Physical Forms” (priority 2007, published 2010)
